Patent US5854204A, “Aβ peptides that modulate β-amyloid aggregation” (priority 1996, dated 1998)
Like-named read-outs stand apart in the source and are kept apart here. Ends that are not written are not given here. Peptide text beside a SMILES is read from it. * marks the point of attachment. Cholyl = C[C@H](CCC(=O)*)[C@H]1CC[C@H]2[C@@H]3[C@H](O)C[C@@H]4C[C@H](O)CC[C@]4(C)[C@H]3C[C@H](O)[C@]12C

Target: Aβ1-40 (Homo sapiens, UniProt P05067)
[1] = Table VI, unmodified peptides, 100 mole %
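Also: Aβ nucleation assay tracking fiber polymerization from monomer by turbidity (light scattering), shaken continuously in 96-well plates, read every 15 min over 5 h, compared with compound-free control.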

Chain of Aβ1-40 (P05067 672-711): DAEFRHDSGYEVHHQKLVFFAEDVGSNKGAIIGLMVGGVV

| Molecule | % Inhibition of Plateau | Fold Increase in Lag Time [1] | also measured |
| --- | --- | --- | --- |
| CC[C@H](C)[C@H](NC(=O)[C@H](C)NC(=O)CNC(=O)[C@H](CCCCN)NC(=O)[C@H](CC(N)=O)NC(=O)[C@H](CO)NC(=O)[C@H](Cc1ccccc1)NC(=O)[C@H](Cc1ccccc1)NC(=O)[C@@H](NC(=O)[C@H](CC(C)C)NC(=O)[C@H](CCCCN)NC(=O)[C@H](CCC(N)=O)NC(=O)[C@H](Cc1c[nH]cn1)NC(=O)[C@H](Cc1c[nH]cn1)NC(=O)[C@@H](NC(=O)[C@H](CCC(=O)O)NC(=O)[C@H](Cc1ccc(O)cc1)NC(=O)CNC(=O)[C@H](CO)NC(=O)[C@H](CC(=O)O)NC(=O)[C@H](Cc1c[nH]cn1)NC(=O)[C@H](CCCNC(=N)N)NC(=O)[C@H](Cc1ccccc1)NC(=O)[C@H](CCC(=O)O)NC(=O)[C@H](C)NC(=O)[C@@H](N)CC(=O)O)C(C)C)C(C)C)C(=O)N[C@H](C(=O)NCC(=O)N[C@@H](CC(C)C)C(=O)N[C@@H](CCSC)C(=O)N[C@H](C(=O)NCC(=O)NCC(=O)N[C@H](C(=O)N[C@H](C(=O)O)C(C)C)C(C)C)C(C)C)[C@@H](C)CC [PPI-249, Aβ1-20, 26-40 (Δ21-25)] | ~ 0% | 2.37 fold |  |
| CC[C@H](C)[C@H](NC(=O)[C@H](C)NC(=O)CNC(=O)[C@H](CCCCN)NC(=O)[C@H](CC(N)=O)NC(=O)[C@H](CO)NC(=O)CNC(=O)[C@@H](NC(=O)[C@H](CC(=O)O)NC(=O)[C@H](CCC(=O)O)NC(=O)[C@H](C)NC(=O)[C@H](CCC(N)=O)NC(=O)[C@H](Cc1c[nH]cn1)NC(=O)[C@H](Cc1c[nH]cn1)NC(=O)[C@@H](NC(=O)[C@H](CCC(=O)O)NC(=O)[C@H](Cc1ccc(O)cc1)NC(=O)CNC(=O)[C@H](CO)NC(=O)[C@H](CC(=O)O)NC(=O)[C@H](Cc1c[nH]cn1)NC(=O)[C@H](CCCNC(=N)N)NC(=O)[C@H](Cc1ccccc1)NC(=O)[C@H](CCC(=O)O)NC(=O)[C@H](C)NC(=O)[C@@H](N)CC(=O)O)C(C)C)C(C)C)C(=O)N[C@H](C(=O)NCC(=O)N[C@@H](CC(C)C)C(=O)N[C@@H](CCSC)C(=O)N[C@H](C(=O)NCC(=O)NCC(=O)N[C@H](C(=O)N[C@H](C(=O)O)C(C)C)C(C)C)C(C)C)[C@@H](C)CC [PPI-250, Aβ1-15, 21-40 (Δ16-20)] | ~ 0% | 1.55 fold |  |
| CC[C@H](C)[C@H](NC(=O)[C@H](C)NC(=O)CNC(=O)[C@H](CCCCN)NC(=O)[C@H](CC(N)=O)NC(=O)[C@H](CO)NC(=O)CNC(=O)[C@@H](NC(=O)[C@H](CC(=O)O)NC(=O)[C@H](CCC(=O)O)NC(=O)[C@H](C)NC(=O)[C@H](Cc1ccccc1)NC(=O)[C@H](Cc1ccccc1)NC(=O)[C@@H](NC(=O)[C@H](CC(C)C)NC(=O)[C@H](CCCCN)NC(=O)[C@H](Cc1ccc(O)cc1)NC(=O)CNC(=O)[C@H](CO)NC(=O)[C@H](CC(=O)O)NC(=O)[C@H](Cc1c[nH]cn1)NC(=O)[C@H](CCCNC(=N)N)NC(=O)[C@H](Cc1ccccc1)NC(=O)[C@H](CCC(=O)O)NC(=O)[C@H](C)NC(=O)[C@@H](N)CC(=O)O)C(C)C)C(C)C)C(=O)N[C@H](C(=O)NCC(=O)N[C@@H](CC(C)C)C(=O)N[C@@H](CCSC)C(=O)N[C@H](C(=O)NCC(=O)NCC(=O)N[C@H](C(=O)N[C@H](C(=O)O)C(C)C)C(C)C)C(C)C)[C@@H](C)CC [PPI-251, Aβ1-10, 16-40 (Δ11-15)] | ~ 0% | ~ 1.2 fold |  |
| CC(C)C[C@H](NC(=O)[C@H](CCCCN)NC(=O)[C@H](CCC(N)=O)NC(=O)[C@H](Cc1c[nH]cn1)NC(=O)[C@H](Cc1c[nH]cn1)NC(=O)[C@@H](NC(=O)[C@H](CCC(=O)O)NC(=O)[C@H](Cc1ccc(O)cc1)NC(=O)CNC(=O)[C@H](CO)NC(=O)[C@H](CC(=O)O)NC(=O)[C@H](Cc1c[nH]cn1)NC(=O)CC[C@@H](C)[C@H]1CC[C@H]2[C@@H]3[C@H](O)C[C@@H]4C[C@H](O)CC[C@]4(C)[C@H]3C[C@H](O)[C@]12C)C(C)C)C(=O)N[C@H](C(=O)N[C@@H](Cc1ccccc1)C(N)=O)C(C)C [PPI-321] (Cholyl-HDSGYEVHHQKLVF-NH2) |  |  | inhibitory activity on Aβ aggregation: loss of inhibitory activity; Fold Increase in Lag Time (Table III, 33 mole %): 1.4 fold; Fold Increase in Lag Time (Table IV, 100 mole %): 1.2 fold |
| CC(C)[C@H](NC(=O)[C@H](CCC(=O)O)NC(=O)[C@H](Cc1ccc(O)cc1)NC(=O)CNC(=O)[C@H](CO)NC(=O)[C@H](CC(=O)O)NC(=O)[C@H](Cc1c[nH]cn1)NC(=O)CC[C@@H](C)[C@H]1CC[C@H]2[C@@H]3[C@H](O)C[C@@H]4C[C@H](O)CC[C@]4(C)[C@H]3C[C@H](O)[C@]12C)C(=O)N[C@@H](Cc1c[nH]cn1)C(=O)N[C@@H](Cc1c[nH]cn1)C(N)=O [PPI-331] (Cholyl-HDSGYEVHH-NH2) | 29% |  |  |
| C[C@H](CCC(=O)N[C@@H](Cc1c[nH]cn1)C(=O)N[C@@H](CC(=O)O)C(=O)N[C@@H](CO)C(=O)NCC(=O)N[C@@H](Cc1ccc(O)cc1)C(N)=O)[C@H]1CC[C@H]2[C@@H]3[C@H](O)C[C@@H]4C[C@H](O)CC[C@]4(C)[C@H]3C[C@H](O)[C@]12C [PPI-339] (Cholyl-HDSGY-NH2) | 13% |  |  |
| CC(C)C[C@H](NC(=O)[C@H](CCCCN)NC(=O)[C@H](CCC(N)=O)NC(=O)[C@H](Cc1c[nH]cn1)NC(=O)[C@H](Cc1c[nH]cn1)NC(=O)[C@@H](NC(=O)CC[C@@H](C)[C@H]1CC[C@H]2[C@@H]3[C@H](O)C[C@@H]4C[C@H](O)CC[C@]4(C)[C@H]3C[C@H](O)[C@]12C)C(C)C)C(=O)N[C@H](C(=O)N[C@@H](Cc1ccccc1)C(=O)N[C@@H](Cc1ccccc1)C(=O)O)C(C)C [PPI-346] (Cholyl-VHHQKLVFF-OH) | ~ 0% |  |  |
| CC(C)C[C@H](NC(=O)[C@H](CCCCN)NC(=O)[C@H](CCC(N)=O)NC(=O)CC[C@@H](C)[C@H]1CC[C@H]2[C@@H]3[C@H](O)C[C@@H]4C[C@H](O)CC[C@]4(C)[C@H]3C[C@H](O)[C@]12C)C(=O)N[C@H](C(=O)N[C@@H](Cc1ccccc1)C(=O)O)C(C)C [PPI-366] (Cholyl-QKLVF-OH) | ~ 0% |  |  |
| CC(C)C[C@H](NC(=O)CC[C@@H](C)[C@H]1CC[C@H]2[C@@H]3CC[C@@H]4C[C@H](O)CC[C@]4(C)[C@H]3C[C@H](O)[C@]12C)C(=O)N[C@H](C(=O)N[C@@H](Cc1ccccc1)C(=O)N[C@@H](Cc1ccccc1)C(=O)N[C@@H](C)C(=O)O)C(C)C [PPI-424] |  |  | % Inucl'n (percent reduction in maximum turbidity): -114% |
| CC(C)C[C@H](NC(=O)OC(C)(C)C)C(=O)N[C@H](C(=O)N[C@@H](Cc1ccccc1)C(=O)N[C@@H](Cc1ccccc1)C(=O)N[C@@H](C)C(=O)O)C(C)C [PPI-435] |  |  | % Inucl'n (percent reduction in maximum turbidity): -5%; ΔLag (ratio of lag time with test compound to lag time of control) (Table V, 100 mole % inhibitor relative to Aβ1-40): 3.0 |
| AEDVGSNKGAIIGLM [PPI-229, Aβ21-35] | ~ 0% | ~ 1 fold |  |
| HDSGYEVHHQKLVFF [PPI-226, Aβ6-20] | 76% | 1.66 fold |  |
| KLVFFAEDVGSNKGA [PPI-228, Aβ16-30] | 100% | > 4.5 fold |  |
| SNKGAIIGLMVGGVV [PPI-230, Aβ26-40] | ~ 0% | 0.8 fold |  |
